No end group written: not given here.
Columns and labels:
[1] = cited from earlier work
[2] = target: T1, DPP-IV (in situ, human intestinal Caco-2 cells) (Homo sapiens, UniProt P27487); assay: In situ DPP-IV activity assay on 2-, 4- and 6-day Caco-2 cells (Gly-Pro-AMC); settings: for reduction of in situ DPP-IV activity vs control: 2-day Caco-2 cells, 100 µM peptide, 1 h pre-incubation, 50 µM Gly-Pro-AMC, 10 min, three experiments in triplicate
Experimental: (§1) Caco-2 cells, obtained from INSERM (Paris, France), were routinely sub-cultured at 50% density [22] and maintained at 37 °C in a 90% air/10% CO2 atmosphere in DMEM containing 25 mM of glucose, 3.7 g/L of NaHCO3, 4 mM of stable L-glutamine, 1% nonessential amino acids, 100 U/L of penicillin, and 100 µg/L of streptomycin (complete medium), supplemented with 10% heat-inactivated fetal bovine serum (FBS; Hyclone Laboratories, Logan, UT, USA).
(§2) The medium was regularly changed three times a week. Caco-2 cells DPP-IV activity was assayed on days 2, 4, and 6 from seeding.

[3] = target: T1, DPP-IV (in situ, human intestinal Caco-2 cells)
Experimental: as §1, §2

intestinal Caco-2 cells = settings: cited from earlier work
Experimental: Considered all of these aspects, using live intestinal Caco-2 cells, experiments were performed to investigate in detail the ability of Lup1 and Soy1 to inhibit DPP-IV activity, in the presence of BB proteolytic activity.

[4] = target: T2, circulating DPP-IV in human serum (Homo sapiens, UniProt P27487); assay: Ex vivo circulating DPP-IV activity assay in human serum (Gly-Pro-AMC); type: biochemical; settings: 24 h at 37 °C, 50 µM Gly-Pro-AMC final, three experiments in triplicate
T2 construct: a soluble form of DPP-IV lacking the cytoplasmic and transmembrane domains is present in plasma and other body fluids; from tissue; host or cells: human serum from a healthy volunteer
Experimental: Human serum samples prepared from freshly collected venous blood from a healthy volunteer were aliquoted 40 µL/well in black 96-well plates and 10 µL of each inhibitor were added for 24 h at 37 °C. […] Subsequently, 50 µL of 100 µM Gly-Pro-AMC was added to each well to achieve a final substrate concentration of 50 µM.

T1 sequence (P27487 whole entry): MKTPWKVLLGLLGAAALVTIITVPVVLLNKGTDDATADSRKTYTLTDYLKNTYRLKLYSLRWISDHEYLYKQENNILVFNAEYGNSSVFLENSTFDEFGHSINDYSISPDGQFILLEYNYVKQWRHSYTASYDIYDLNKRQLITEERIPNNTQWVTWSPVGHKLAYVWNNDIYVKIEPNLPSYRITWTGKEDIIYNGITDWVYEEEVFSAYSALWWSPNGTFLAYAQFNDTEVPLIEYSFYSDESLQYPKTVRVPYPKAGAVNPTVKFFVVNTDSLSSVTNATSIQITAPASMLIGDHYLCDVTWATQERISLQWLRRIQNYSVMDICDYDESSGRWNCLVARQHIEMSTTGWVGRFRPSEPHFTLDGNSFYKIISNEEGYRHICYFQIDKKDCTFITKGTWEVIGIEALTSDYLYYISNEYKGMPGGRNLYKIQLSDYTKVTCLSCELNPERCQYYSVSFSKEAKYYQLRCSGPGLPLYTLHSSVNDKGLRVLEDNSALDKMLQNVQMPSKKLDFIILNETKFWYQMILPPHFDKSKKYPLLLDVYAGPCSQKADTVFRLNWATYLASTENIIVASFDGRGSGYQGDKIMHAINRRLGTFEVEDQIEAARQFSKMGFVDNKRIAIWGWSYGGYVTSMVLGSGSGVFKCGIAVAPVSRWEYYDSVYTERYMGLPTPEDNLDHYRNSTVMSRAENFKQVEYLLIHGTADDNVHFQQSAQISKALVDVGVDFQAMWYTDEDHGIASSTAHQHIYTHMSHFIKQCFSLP
T2 sequence (P27487 39-766 limits assumed): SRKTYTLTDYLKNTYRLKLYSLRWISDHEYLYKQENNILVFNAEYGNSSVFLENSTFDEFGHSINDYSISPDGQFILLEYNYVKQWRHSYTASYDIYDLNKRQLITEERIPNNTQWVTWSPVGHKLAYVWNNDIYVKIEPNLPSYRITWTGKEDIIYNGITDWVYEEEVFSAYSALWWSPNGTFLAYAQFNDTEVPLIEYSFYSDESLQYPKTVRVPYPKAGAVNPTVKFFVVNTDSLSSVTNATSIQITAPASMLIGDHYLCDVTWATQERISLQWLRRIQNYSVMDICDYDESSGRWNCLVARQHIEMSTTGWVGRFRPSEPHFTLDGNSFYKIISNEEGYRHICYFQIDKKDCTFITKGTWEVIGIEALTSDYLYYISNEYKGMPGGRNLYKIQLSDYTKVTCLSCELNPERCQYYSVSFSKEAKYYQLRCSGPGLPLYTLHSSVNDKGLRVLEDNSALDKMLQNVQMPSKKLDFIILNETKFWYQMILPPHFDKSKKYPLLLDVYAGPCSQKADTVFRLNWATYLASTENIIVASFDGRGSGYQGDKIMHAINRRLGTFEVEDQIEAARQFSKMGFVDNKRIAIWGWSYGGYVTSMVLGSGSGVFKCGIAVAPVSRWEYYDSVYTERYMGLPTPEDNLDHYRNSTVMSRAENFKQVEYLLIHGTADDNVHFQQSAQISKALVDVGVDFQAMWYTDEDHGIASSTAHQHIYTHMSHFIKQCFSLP

IC50 [2]	reduction of in situ DPP-IV activity vs control [2]	in situ IC50 compared with in vitro IC50 [3]	decrease of circulating DPP-IV activity vs control ([4]; 100 µM peptide)	decrease of circulating DPP-IV activity vs control ([4]; 300 µM peptide)	Compound	absorption in vivo (in words) [1]	breakdown fragments formed (intestinal Caco-2 cells; Caco-2 cells, already after 2 h of incubation)	susceptibility to intestinal endopeptidases (in words) (intestinal Caco-2 cells; Caco-2 cells)	in situ IC50 compared with in vitro IC50 (in words) ([2]; 2-day Caco-2 IC50 vs in vitro purified enzyme IC50)	stability to apical proteases (in words) (intestinal Caco-2 cells; differentiated Caco-2 cells, apical proteases, after 4 h of incubation)	absorption by Caco-2 cells (in words) (intestinal Caco-2 cells; differentiated intestinal Caco-2 cells)
–	–	–	–	–	N[C@@H](CC(=O)N1CCn2c(nnc2C(F)(F)F)C1)Cc1cc(F)c(F)cc1F [sitagliptin, Sitagliptin]	rapidly absorbed	–	–	–	–	–
223 µM	50%	2 fold	27.7%	35.0%	IAVPTGVA [Soy1]	–	IAVPT and AVPTGVA	susceptible to the action of intestinal endopeptidases	–	–	–
207 µM	50%	–	18.1%	24.7%	LTFPGSAED [Lup1]	–	–	–	in agreement with that obtained with the in vitro assay	not degraded	absorbed intact
